Drawing on PMC5816626, “A multitarget approach to drug discovery inhibiting Mycobacterium tuberculosis PyrG and PanK” (Scientific Reports, 2018), this text covers MIC for four compounds.

Converted amounts (≈) assume the structure as drawn.

Holding throughout (type): cell-based, Mycobacterium tuberculosis
In experiment [1] the test system is M. tuberculosis 81.10 mutant (ethA Δ1109–1137).
Experiment [2] concerns M. tuberculosis 88.3, 88.4, 88.5, 88.9, 88.11, 88.12 mutants (coaA A620G (Q207R)).
For experiment [3], the system named is M. tuberculosis 88.1 mutant (coaA A620G (Q207R)).
For experiment [4], the system named is M. tuberculosis 88.2 mutant (coaA A620G (Q207R)).
Experiment [5] deals with M. tuberculosis 82.21 mutant (ethA Δ1283–4, coaA A620G (Q207R)).

By MIC is commonly meant the lowest concentration found to suppress growth. As to `O=C(CCc1ccccc1)NC(=S)Nc1ccc(N2CCCCC2)cc1` [compound 7904688, 3-phenyl-N-[(4-piperidin-1-ylphenyl)carbamothioyl]propanamide], the MIC in experiment [1] is above 40 µg/mL; in experiment [2], 10 µg/mL (≈ 27.2 µM); in experiment [3], 10 µg/mL (≈ 27.2 µM); in experiment [4], 10 µg/mL (≈ 27.2 µM); in experiment [5] it was above 40 µg/mL.
As for `CCc1cc(C(N)=S)ccn1` [Ethionamide, reference compound], the MIC in experiment [1] was 10 µg/mL (≈ 60.2 µM); in experiment [2], 1 µg/mL (≈ 6.02 µM); in experiment [3] it was 1 µg/mL (≈ 6.02 µM); in experiment [4] it was 1 µg/mL (≈ 6.02 µM); in experiment [5], 10 µg/mL (≈ 60.2 µM).
Regarding `Cc1ccc(C(=O)Nc2ccc([N+](=O)[O-])cc2)s1` [compound 7947882, 5-methyl-N-(4-nitrophenyl)thiophene-2-carboxamide], the MIC was above 40 µg/mL in experiment [1]; 2.5 µg/mL (≈ 9.53 µM) in experiment [2]; 2.5 µg/mL (≈ 9.53 µM) in experiment [3]; 2.5 µg/mL (≈ 9.53 µM) in experiment [4]; above 40 µg/mL in experiment [5].
For `CC1=CC=C(C(=O)Nc2ccc([N+](=O)[O-])cc2)S1(=O)=O` [compound 11426026], the minimal inhibitory concentration (MIC) in experiment [1] stood at 1 µg/mL (≈ 3.4 µM); in experiment [2], 2.5 µg/mL (≈ 8.5 µM); in experiment [3], 2.5 µg/mL (≈ 8.5 µM); in experiment [4], 2.5 µg/mL (≈ 8.5 µM); in experiment [5], 2.5 µg/mL (≈ 8.5 µM).
